Experimental data taken from the CATMoS acute toxicity set (Mansouri et al. 2021).

Experiment: GHS categories as the set defines them, by LD50: 1 up to 5, 2 up to 50, 3 up to 300, 4 up to 2000, 5 above 2000 mg/kg
Details: rat; in vivo; po
Excerpt: […]The data set underlying the modeling effort for this project was initially compiled by NICEATM and U.S. EPA’s CCTE. Briefly, LD50 data were collected from rat acute oral systemic toxicity tests, including limit tests, ranges/confidence intervals, and discrete LD50 values. The full data set included 21,200 LD50 entries for 15,688 substances. […] Data were reviewed to ensure that LD50 values with obvious errors in the extracted data such as unit conversion errors (e.g., comma and decimal separator misplacements) were either fixed or removed. After this review, 16,209 LD50 values remained. Many of the chemicals represented had multiple LD50 entries, requiring that a single representative value per Chemical Abstracts Service Registry Number (CASRN) identifier be defined to facilitate modeling efforts. Based on ATWG feedback and to define the representative LD50 as a protective value while accounting for the distribution across multiple LD50s, the median of the lowest quartile was computed using only discrete LD50 values (omitting limit test data and range and confidence interval data). A detailed summary of the data compilation is available online on the NICEATM webpage dedicated to the collaborative modeling project (NTP 2020).
[…][…] For categorical designations, limit test and range/confidence interval LD50 data were integrated wherever possible. As such, the number of chemicals with end point values/calls varies across the modeling end points (Table 3) based on whether chemicals had representative LD50 values and/or other data. If a chemical had both, the representative value was used to determine categorical calls rather than limit test data. Some data were useable only for certain end points and categories depending on the thresholds. For example, ranges that spanned multiple hazard categories were considered only for the binary (very toxic/nontoxic) end points and omitted from rendering a determination for hazard category assignment.
[…]The final data set comprising 11,992 chemicals was split into training and evaluation sets […], respectively. This process was performed semirandomly by ordering chemicals based on the five end points (categorical and continuous LD50 values) and partitioning every fourth record into the evaluation set accordingly. This approach was taken to ensure an equivalent distribution of the LD50 values and the different hazard categories between the training and the evaluation sets without supervised sampling of the chemicals based on structures (Figure 1A). The sources of the chemical structures were also kept equivalent between the two sets, with chemical structures obtained from DSSTox, being the highest quality, representing over 75% of each set (Figure 1B).

Compound: CCCCCC1Nc2cc(C(F)(F)F)c(S(N)(=O)=O)cc2S(=O)(=O)N1 (centres undefined)
- GHS category: 5

Compound: CC1(C)COB(OCC(C)(C)COB2OCC(C)(C)CO2)OC1
- GHS category: 5

Compound: CC(C)(C)OOC(C)(C)c1cccc(C(C)(C)OOC(C)(C)C)c1
- GHS category: 5

Compound: CC1=CC(=NNc2ccc(N)cc2)C=C(C)C1=O
- GHS category: 5

Compound: O=C(Nc1ccccc1SSc1ccccc1NC(=O)c1ccccc1)c1ccccc1
- GHS category: 5

Compound: COc1ccc(-c2cc(=O)c3c(OCCO)cc(O[C@@H]4O[C@H](CO[C@@H]5O[C@@H](C)[C@H](O)[C@@H](O)[C@H]5O)[C@@H](O)[C@H](O)[C@H]4O)cc3o2)cc1O
- GHS category: 5

Compound: COC(=O)CC(C(C)=O)C(=O)OC (centres undefined)
- GHS category: 5

Compound: O=C(O)c1cc(Br)nn1-c1ncccc1Cl
- GHS category: 5

Compound: CCCCCCC(O)CO (centres undefined)
- GHS category: 5

Compound: CCC(=O)O[C@]1(C(=O)COC(C)=O)CC[C@H]2[C@@H]3C[C@H](C)C4=CC(=O)C=C[C@]4(C)[C@H]3[C@@H](O)C[C@@]21C
- GHS category: 5

Compound: CCOP(=O)(CC(=O)Nc1cc2c(Nc3ccc(F)c(Cl)c3)ncnc2cc1O[C@H]1CCOC1)OCC
- GHS category: 5

Compound: NC(CSCC(=O)O)C(=O)O (centres undefined)
- GHS category: 5

Compound: C=C(C)C(=O)OCCNC(C)(C)C
- GHS category: 4

Compound: CCCCCCCCC=CCCCCCCCC(=O)OCC(COC(=O)CCCCCCCC=CCCCCCCCC)(COC(=O)CCCCCCCC=CCCCCCCCC)COC(=O)CCCCCCCC=CCCCCCCCC (centres undefined)
- GHS category: 5

Compound: CCCCCC(=Cc1ccccc1)C(OCC)OCC
- GHS category: 5

Compound: COC(=O)c1ccccc1S(=O)(=O)NC(=O)Nc1nc(C)cc(C)n1
- GHS category: 5

Compound: CCCNC(=O)c1cnc2c(C)cccn2c1=O
- GHS category: 3

Compound: Cc1nc(N)sc1C(=O)N(C(C)C)C(C)C
- GHS category: 4

Compound: Cc1ccc(C(=O)Oc2ccc(C(O)CNC(C)(C)C)cc2OC(=O)c2ccc(C)cc2)cc1 (centres undefined)
- GHS category: 5

Compound: CCCCCCCCCCCC(=O)OC
- GHS category: 5

Compound: Oc1c(I)cc(Cl)c2cccnc12
- GHS category: 5

Compound: CCCCC(CC)COC(=O)CCCCCCCCC(=O)OCC(CC)CCCC (centres undefined)
- GHS category: 5

Compound: CCC1(CC)C(=O)N2Cc3ccccc3CN2C1=O
- GHS category: 5

Compound: CCCNC(=O)Cc1cnc2cccc(C)n2c1=O
- GHS category: 3

Compound: Cn1c(N)c(NC=O)c(=O)n(C)c1=O
- GHS category: 5

Compound: O=C(c1ccc(Cl)cc1)N1CCN=C1c1ccccc1
- GHS category: 4

Compound: C=C(C)c1cccc(C(=C)C)c1
- GHS category: 5

Compound: CCCCCCCCCCCCCCCc1cccc(OC(=O)c2cc(Cl)ccc2OC(N)=O)c1
- GHS category: 5

Compound: CCCc1c(Cc2ccc(-c3ccccc3-c3nn[nH]n3)cc2)c(N(CC)CC)nc2ncnn12
- GHS category: 4

Compound: CC(C)=CCC/C(C)=C/COC(=O)C(C)C
- GHS category: 5

Compound: CCOC(=O)c1ocnc1C
- GHS category: 5

Compound: O=[N+]([O-])c1ccc2c(c1)COP(=S)(N1CCOCC1)O2 (centres undefined)
- GHS category: 3

Compound: CN1C(=CC=O)C(C)(C)c2ccccc21
- GHS category: 3

Compound: C=CC(C)(CCC=C(C)C)OC (centres undefined)
- GHS category: 5

Compound: O=C(O)CC(=O)C(=O)O
- GHS category: 5

Compound: COC(=O)c1ccc2c(c1)NC(=O)C2
- GHS category: 5

Compound: COC(=O)c1sc(N)c(C#N)c1C
- GHS category: 5

Compound: CNc1ccc(C(C)=O)cc1O
- GHS category: 5

Compound: CCC(O)=C1C(=O)CC(C(=O)O)CC1=O (centres undefined)
- GHS category: 5

Compound: CCCC=CCC1CCCC1=O (centres undefined)
- GHS category: 5

Compound: CCOC[C@H]1CO[C@@](Cn2cncn2)(c2cc3ccccc3o2)O1
- GHS category: 4

Compound: Cn1ccnc1Cc1nn[nH]n1
- GHS category: 5

Compound: Nc1c(I)c(C(=O)O)c(I)c(C(=O)NCC(O)CO)c1I (centres undefined)
- GHS category: 5

Compound: CCCCCCCOCC(COCCCCCCC)(COCCCCCCC)COCCCCCCC
- GHS category: 5

Compound: Cc1ccc(OP(=O)(Oc2ccccc2)Oc2ccccc2)cc1
- GHS category: 5

Compound: O=C(c1ccc(Cl)cc1)c1ccc2[nH]c(=O)oc2c1
- GHS category: 5

Compound: O=C(O)c1ccc(NC(=O)[C@H](Cc2ccc(O)cc2)NC(=O)c2ccccc2)cc1
- GHS category: 5

Compound: CCCCCCCCCCCCSN(C)C(=O)Oc1cccc2c1OC(C)(C)C2
- GHS category: 3

Compound: Oc1cn2c(n1)Nc1ccc(Cl)c(Cl)c1C2
- GHS category: 4

Compound: COC(=O)NC(=S)Nc1ccc(OCc2ccccc2)cc1[N+](=O)[O-]
- GHS category: 5

Compound: CCCCCCCCCCCCCCCCN(C)C
- GHS category: 5

Compound: O=S(=O)(CCO)CS(=O)(=O)CCO
- GHS category: 5

Compound: CSC
- GHS category: 4

Compound: C=CCCCC(C)C
- GHS category: 5

Compound: COC(=O)c1nc(Cl)c(Cl)nc1N
- GHS category: 5

Compound: Clc1ccc2oc(C3(Cn4ccnc4)OCCO3)cc2c1
- GHS category: 4

Compound: CN(C)Cc1ccccc1Cl
- GHS category: 4

Compound: CCCc1c(Cc2ccc(-c3ccccc3-c3nn[nH]n3)cc2)c(=O)nc2nc(SC)[nH]n12
- GHS category: 4

Compound: CC(=O)c1ccc(Oc2ccc(Cl)cc2)cc1Cl
- GHS category: 5

Compound: CC(C)CC(C)c1ccccc1N (centres undefined)
- GHS category: 5

Compound: COc1cc(CC2NCCc3cc(O)c(O)cc32)cc(OC)c1OC (centres undefined)
- GHS category: 5

Compound: Cc1c([N+](=O)[O-])c(C)c([N+](=O)[O-])c(C(C)(C)C)c1[N+](=O)[O-]
- GHS category: 5

Compound: CCCc1c(Cc2ccc(-c3ccccc3-c3nn[nH]n3)cc2)c(N2CCCC2)nc2ncnn12
- GHS category: 4

Compound: Cc1cc(O)c2c(O)c(-c3ccc4cc(C)cc(O)c4c3O)ccc2c1
- GHS category: 5

Compound: CC1(C)O[C@@H]2C[C@H]3[C@@H]4C[C@H](F)C5=CC(=O)C=C[C@]5(C)[C@H]4[C@@H](O)C[C@]3(C)[C@]2(C(=O)CO)O1
- GHS category: 1

Compound: CCOc1cc(C)c2[nH]c(=O)sc2c1
- GHS category: 5

Compound: COc1cc(C#N)cc(OC)c1O
- GHS category: 5

Compound: Nc1ccc(C(=O)O)cc1
- GHS category: 5

Compound: O=[N+]([O-])c1ccc(Nc2ccccc2)cc1
- GHS category: 5

Compound: NC(=O)Oc1ccccc1C(=O)Oc1ccc([N+](=O)[O-])cc1
- GHS category: 5

Compound: O=C(NNc1cccc(C(F)(F)F)c1)c1cccnc1Cl
- GHS category: 4

Compound: OC[C@H]1CO[C@@](Cn2cncn2)(c2cc3ccccc3o2)O1
- GHS category: 4

Compound: O=C(O)c1ccccc1Nc1ccc(O)c(C(F)(F)F)c1
- GHS category: 5

Compound: CN(C(=O)CNCP(=O)(O)O)S(C)(=O)=O
- GHS category: 2

Compound: C/C=C(\C)C(=O)OC(C)C
- GHS category: 5

Compound: CCOC(=O)C(=O)Nc1cc(Cl)ncn1
- GHS category: 4

Compound: COCCOc1nc(Nc2ccc(C=Cc3ccc(Nc4nc(OCCOC)nc(N(C)CCS(=O)(=O)O)n4)cc3S(=O)(=O)O)c(S(=O)(=O)O)c2)nc(N(C)CCS(=O)(=O)O)n1
- GHS category: 5

Compound: CCCCCCCCCC(=O)Nc1ccc(Cc2ccccn2)c([N+](=O)[O-])c1
- GHS category: 3

Compound: CC(C)(C)c1ccc(OCC2CO2)cc1 (centres undefined)
- GHS category: 5

Compound: CC(C)=CCOc1ccc(/C=C/C(=O)c2ccc(OCC=C(C)C)cc2OCC(=O)O)cc1
- GHS category: 5

Compound: NP(N)(=O)Nc1ccccc1[N+](=O)[O-]
- GHS category: 5

Compound: O=C[C@H](O)[C@@H](O)[C@H](O)[C@H](O)CO[C@H]1O[C@H](CO[C@H]2O[C@H](CO)[C@@H](O)[C@H](O)[C@H]2O)[C@@H](O)[C@H](O)[C@H]1O
- GHS category: 5

Compound: CC=CC(=O)OCCCCCC
- GHS category: 5

Compound: Cn1nnnc1SCCCS(=O)c1ccccn1 (centres undefined)
- GHS category: 4

Compound: O=Cc1cc([N+](=O)[O-])ccc1Cl
- GHS category: 5

Compound: FC(F)CNCc1ccc(Cl)nc1
- GHS category: 5

Compound: CCCCCCBr
- GHS category: 5

Compound: CC(C)S
- GHS category: 5

Compound: CCCCOc1nn(-c2cccc(C(F)(F)F)c2)c2ncccc12
- GHS category: 4

Compound: CC(CCO)CC(C)(C)C (centres undefined)
- GHS category: 5

Compound: CCCCCCCCCCCCCCCCCCOC(=O)CCc1cc(C(C)(C)C)c(O)c(C(C)(C)C)c1
- GHS category: 5

Compound: Cn1cc(C(=O)O)c(C(F)F)n1
- GHS category: 5

Compound: NNC(=O)NN
- GHS category: 5

Compound: C[Si](Cl)(Cl)c1ccccc1
- GHS category: 3

Compound: CNC(=O)C(C#N)=c1[nH]c(=C2C(=O)NC(=O)NC2=O)c2ccccc12
- GHS category: 5

Compound: CCOC(=O)C(C)CC (centres undefined)
- GHS category: 5

Compound: Cc1ccc(SCOC(Cn2ccnc2)c2ccc(Cl)cc2Cl)cc1 (centres undefined)
- GHS category: 5

Compound: O=C(O)CN(CCN(CC(=O)O)CC(=O)O)CCN(CC(=O)O)CC(=O)O (racemic)
- GHS category: 5

Compound: Cc1c(Cc2ccc(-c3ccccc3-c3nn[nH]n3)cc2)c(=O)nc2nc[nH]n12
- GHS category: 4
